Reference: paper PMC6816013 (Journal of Medicinal Chemistry, 2019)
Entries after “also recorded” stand apart in the source; their conditions may differ. Structures can show the parent of a compound that is named as a salt. Where two headings read alike, the source gives them in different places.

How the values were obtained:
[1] = test system: Plasmodium falciparum WT cell line; assay: Growth inhibition of P. falciparum WT cell line at 48 and 72 h; type: cell-based; conditions: read-out: Pf WT cell line EC50 72h
[2] = test system: P. falciparum strain 3D7A; type: cell-based, Plasmodium falciparum
[3] = target: HSA (Homo sapiens, UniProt P02768); assay: HSA binding (plasma protein binding); type: in vitro ADME
[4] = Cell cytotoxicity assay; type: cell-based; conditions: for cytotoxicity/cell activity safety window: cytotoxicity EC50 / Pf EC50
[5] = test system: Plasmodium falciparum 3D7A; assay: microbe, parasite or virus in culture; conditions: read-out: Pf EC50
[6] = target: T1, SRPK2 (Plasmodium falciparum, UniProt Q8IL41); assay: Pull down with compound 31 or 50 attached to beads, competition with free compound; type: binding; conditions: competed with free analogue, Figure 4b
T1 sequence (Q8IL41 1-1268): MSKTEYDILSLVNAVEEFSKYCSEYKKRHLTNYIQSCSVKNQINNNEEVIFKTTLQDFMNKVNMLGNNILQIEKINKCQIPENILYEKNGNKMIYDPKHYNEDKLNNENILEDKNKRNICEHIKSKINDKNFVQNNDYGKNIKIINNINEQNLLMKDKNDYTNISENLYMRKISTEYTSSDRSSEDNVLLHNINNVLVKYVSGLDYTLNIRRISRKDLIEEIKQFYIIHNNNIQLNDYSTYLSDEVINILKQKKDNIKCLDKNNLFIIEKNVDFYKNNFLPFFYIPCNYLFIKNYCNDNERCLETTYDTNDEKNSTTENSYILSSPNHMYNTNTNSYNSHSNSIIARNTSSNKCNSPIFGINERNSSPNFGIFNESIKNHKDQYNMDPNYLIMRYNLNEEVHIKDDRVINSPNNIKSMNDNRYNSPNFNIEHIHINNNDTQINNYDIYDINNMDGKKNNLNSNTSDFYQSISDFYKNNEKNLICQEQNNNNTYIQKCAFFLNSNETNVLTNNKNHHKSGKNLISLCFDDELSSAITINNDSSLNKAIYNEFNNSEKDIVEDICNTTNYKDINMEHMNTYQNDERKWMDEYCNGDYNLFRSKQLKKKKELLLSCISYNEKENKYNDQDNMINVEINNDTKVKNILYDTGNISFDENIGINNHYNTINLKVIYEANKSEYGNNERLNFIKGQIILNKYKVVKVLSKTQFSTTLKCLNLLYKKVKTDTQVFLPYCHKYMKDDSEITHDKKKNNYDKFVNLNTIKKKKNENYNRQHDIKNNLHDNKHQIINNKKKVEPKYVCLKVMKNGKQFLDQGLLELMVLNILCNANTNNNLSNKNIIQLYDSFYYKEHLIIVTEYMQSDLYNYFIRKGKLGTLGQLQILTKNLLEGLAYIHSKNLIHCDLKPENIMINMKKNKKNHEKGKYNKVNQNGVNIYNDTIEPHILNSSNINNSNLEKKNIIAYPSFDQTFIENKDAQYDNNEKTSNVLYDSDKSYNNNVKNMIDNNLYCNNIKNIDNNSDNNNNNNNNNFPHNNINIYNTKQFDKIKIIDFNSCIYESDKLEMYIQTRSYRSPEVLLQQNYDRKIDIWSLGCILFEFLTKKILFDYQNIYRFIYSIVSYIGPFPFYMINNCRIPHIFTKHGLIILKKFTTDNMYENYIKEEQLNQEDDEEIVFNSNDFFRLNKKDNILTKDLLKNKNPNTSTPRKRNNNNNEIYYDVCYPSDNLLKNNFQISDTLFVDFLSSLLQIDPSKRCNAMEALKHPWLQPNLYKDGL

[7] = target: T2, serine/arginine protein kinase 2 (SRPK2 or CLK2) (Plasmodium falciparum, UniProt Q8IL41); assay: Kinobeads competition binding in P. falciparum extract; conditions: Figure 4a, read-out: Kd^app SRPK2
T2 sequence (Q8IL41 1-1268): T1 sequence (Q8IL41 1-1268)

[8] = aqueous solubility
[9] = test system: Plasmodium falciparum 3D7A; conditions: read-out: Pf EC50; 3D7A asexual blood stage, 48 h [3H]-hypoxanthine assay, maximal concentration 5 μM
[10] = ChromlogD
[11] = Intrinsic clearance in rat liver microsomes; type: in vitro ADME; conditions: 0.5 µM
[12] = PRR, 10 × EC50, result in words

HSA, sequence (P02768 25-609): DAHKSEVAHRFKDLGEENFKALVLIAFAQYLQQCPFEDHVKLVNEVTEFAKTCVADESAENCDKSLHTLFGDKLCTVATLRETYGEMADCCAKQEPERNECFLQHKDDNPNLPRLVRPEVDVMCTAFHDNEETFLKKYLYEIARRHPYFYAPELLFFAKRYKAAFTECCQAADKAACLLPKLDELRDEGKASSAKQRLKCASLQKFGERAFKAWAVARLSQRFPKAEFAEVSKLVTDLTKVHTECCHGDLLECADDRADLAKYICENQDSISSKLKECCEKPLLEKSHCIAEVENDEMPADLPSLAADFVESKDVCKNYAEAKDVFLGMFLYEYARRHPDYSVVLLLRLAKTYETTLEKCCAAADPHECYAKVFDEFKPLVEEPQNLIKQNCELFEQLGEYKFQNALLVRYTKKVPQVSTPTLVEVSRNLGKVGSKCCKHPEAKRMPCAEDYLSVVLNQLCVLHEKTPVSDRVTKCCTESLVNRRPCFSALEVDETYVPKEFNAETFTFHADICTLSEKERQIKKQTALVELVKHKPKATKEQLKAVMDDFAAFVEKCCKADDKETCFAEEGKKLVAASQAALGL

Compound	AMP (Tables 2 and 5) [cm/s]	rate of killing in PRR study [2, 12]	HSA binding [3] [%]	other results
CN1CCC(c2nc(-c3ccc(F)c(NS(C)(=O)=O)c3)c(-c3ccnc(NCC4CC4)n3)s2)CC1 [Compound 5, reference compound]	3.4e-06	slow-acting compound; also recorded: slow parasite killing kinetics	91	AMP (Tables 1 and 4): 3.4e-05 cm/s; EC50 [1]: 0.11 µM
Cc1cc(Nc2nccc(-c3sc(C4CCNCC4)nc3CN3CCCCC3)n2)ccn1 [Compound 60, N-(2-Methylpyridin-4-yl)-4-(4-(piperidin-1-ylmethyl)-2-(piperidin-4-yl)thiazol-5-yl)pyrimidin-2-amine Trihydrochloride]	–	potent fast-killing properties	–	cytotoxicity/cell activity safety window [4]: 105
CN1CCN(c2ccc(Nc3nccc(-c4sc(C5CCNCC5)nc4-c4ccc(F)cc4)n3)cc2)CC1 [Compound 7, reference compound]	–	–	97	cytotoxicity/cell activity safety window [4]: 5.4
Nc1nc(-c2ccc(F)cc2)c(-c2ccnc(Nc3ccc(N4CCOCC4)cc3)n2)s1 [Compound 13, 4-[2-Amino-4-(4-fluorophenyl)-1,3-thiazol-5-yl]-N-[4-(morpholin-4-yl)phenyl]pyrimidin-2-amine]	–	–	–	EC50 [5]: > 5 µM
Cc1nccc(Nc2nccc(-c3sc(C4CCNCC4)nc3-c3ccc(F)cc3)n2)n1 [Compound 29, 4-[4-(4-Fluorophenyl)-2-(piperidin-4-yl)-1,3-thiazol-5-yl]-N-(2-methylpyrimidin-4-yl)pyrimidin-2-amine]	1.8e-06	–	91	–
Cc1cc(Nc2nccc(-c3sc(C4CCNCC4)nc3-c3ccc(F)cc3)n2)on1 [Compound 22, N-(4-(4-(4-Fluorophenyl)-2-(piperidin-4-yl)thiazol-5-yl)pyrimidin-2-yl)-3-methylisoxazol-5-amine]	1.2e-06	–	94	–
Nc1nccc(-c2sc(C3CCNCC3)nc2-c2ccc(F)cc2)n1 [Compound 41, 4-[4-(4-Fluorophenyl)-2-(piperidin-4-yl)-1,3-thiazol-5-yl]pyrimidin-2-amine]	–	–	75	AMP (Tables 1 and 4): 1.3e-05 cm/s
Cc1nc(Nc2nccc(-c3sc(C4CCNCC4)nc3-c3ccc(F)cc3)n2)ccc1F [Compound 35, N-(5-Fluoro-6-methylpyridin-2-yl)-4-(4-(4-fluorophenyl)-2-(piperidin-4-yl)thiazol-5-yl)pyrimidin-2-amine]	3e-06	–	96	–
Fc1ccc(-c2nc(C3CCNCC3)sc2-c2ccnc(Nc3ccccn3)n2)cc1 [Compound 25, 4-(4-(4-Fluorophenyl)-2-(piperidin-4-yl)thiazol-5-yl)-N-(pyridin-2-yl)pyrimidin-2-amine]	3.3e-06	–	94	–
Fc1ccc(-c2nc(C3CCNCC3)sc2-c2ccnc(NCCN3CCSCC3)n2)cc1 [Compound 50, 4-(4-(4-Fluorophenyl)-2-(piperidin-4-yl)thiazol-5-yl)-N-(2-thiomorpholinoethyl)pyrimidin-2-amine]	–	–	90	apparent Kd SRPK2 on immobilized compounds [6]: not bind to 50 attached to beads; Kd [7]: > 20 µM
Cc1cc(Nc2nccc(-c3sc(C4CCNCC4)nc3-c3ccc(F)cc3)n2)ccn1 [Compound 31, 4-(4-(4-Fluorophenyl)-2-(piperidin-4-yl)thiazol-5-yl)-N-(2-methylpyridin-4-yl)pyrimidin-2-amine]	2.1e-06	extremely fast-killing effect	97.8	cytotoxicity/cell activity safety window [4]: 25
C[C@H]1[C@H](OC(=O)CCC(=O)O)O[C@@H]2O[C@@]3(C)CC[C@H]4[C@H](C)CC[C@@H]1[C@@]24OO3 [artesunate]	–	fast rate of killing	–	–
Fc1ccc(-c2nc(C3CCNCC3)sc2-c2ccnc(Nc3cnccn3)n2)cc1 [Compound 26, 4-(4-(4-Fluorophenyl)-2-(piperidin-4-yl)thiazol-5-yl)-N-(pyrazin-2-yl)pyrimidin-2-amine]	1.6e-06	–	92	–
4-(4-(4-Fluorophenyl)-2-(piperidin-4-yl)thiazol-5-yl)-N-(1-(piperidin-4-yl)-1H-pyrazol-3-yl)pyrimidin-2-amine [Compound 24]	3e-07	–	93	Solubility [8]: 131 µM; EC50 [9]: 3.31 µM; logD [10]: 1.29; EC50 [4]: 100 µM
O=C1C(O)=C([C@H]2CC[C@H](c3ccc(Cl)cc3)CC2)C(=O)c2ccccc21 [atovaquone]	–	slow rate of killing	–	–
Cc1nnc(Nc2nccc(-c3sc(C4CCNCC4)nc3-c3ccc(F)cc3)n2)s1 [Compound 20, N-(4-(4-(4-Fluorophenyl)-2-(piperidin-4-yl)thiazol-5-yl)pyrimidin-2-yl)-5-methyl-1,3,4-thiadiazol-2-amine]	8e-07	–	92	–
Cc1csc(Nc2nccc(-c3sc(C4CCNCC4)nc3-c3ccc(F)cc3)n2)n1 [Compound 21, N-(4-(4-(4-Fluorophenyl)-2-(piperidin-4-yl)thiazol-5-yl)pyrimidin-2-yl)-4-methylthiazol-2-amine]	1.5e-06	–	96	–
Cc1cc(Nc2nccc(-c3sc(C4CCNCC4)nc3C3CC3)n2)ccn1 [Compound 59, 4-(4-Cyclopropyl-2-(piperidin-4-yl)thiazol-5-yl)-N-(2-methylpyridin-4-yl)pyrimidin-2-amine Dihydrochloride]	–	–	–	AMP (PAMPA): 1.8; Cl rat [11]: 1.8 mL/min/g; rate of killing in PRR study [2]: potent fast-killing properties
CCc1nc(N)nc(N)c1-c1ccc(Cl)cc1 [pyrimethamine]	–	moderate rate of killing	–	–
OC(CNc1nccc(-c2sc(C3CCNCC3)nc2-c2ccc(F)cc2)n1)c1ccncc1 (stereo not drawn) [Compound 40, 2-({4-[4-(4-Fluorophenyl)-2-(piperidin-4-yl)-1,3-thiazol-5-yl]pyrimidin-2-yl}amino)-1-(pyridin-4-yl)ethanol]	1e-07	–	85	EC50 [5]: 1.05 µM
